What was measured:
Poly(GP) = experiment: poly(GP) in c9ALS iPSC-derived spinal neurons; assay type: cell-based, human
Procedure: iPSCs were differentiated into spinal neuron cells using a previously the previously described direct induced motor neuron (diMNs) differentiation protocol (58) with modifications. Briefly, iPSCs were plated into Matrigel-coated 100 mm dishes (30-40% confluence). Neuroepithelial induction was performed by replacing the iPSC maintenance medium with Stage 1 medium [47.5% IMDM (Iscove's Modified Dulbecco's Medium) medium, 47.5% F12 medium, 1% NEAA (Non-Essential Amino Acid) (Life Technologies), 2% B27 (Invitrogen), 1% N2, 1% PSA (Penicillin-Streptomycin-Amphotericin), 0.2 μM LDN193189 (Stemgent), 10 μM SB431542 ([…] Technologies) and 3 μM CHIR99021 (Sigma-Aldrich)]. After daily medium changes for 6 days, cells were detached with Accutase and seeded into 6-well plates (1.5×10^6 cells/well) in 3 mL Stage 2 medium. […]
Measuring Poly(GP) Levels by Electrochemiluminescence. […] Protein concentration was measured by Pierce™ BCA Protein Assay Kit.
Levels of poly(GP) were measured using Meso Scale Discovery MSD Gold 96-well Streptavidin SECTOR plates. […] The conjugated antibodies were desalted with 40K Zeba™ Spin Desalting Columns (Thermo Fisher Scientific), and their concentrations were determined by Pierce™ BCA Protein Assay Kit. […]

C9orf72 intron 1 = C9orf72 intron 1 RT-qPCR in LCLs from a healthy donor; assay type: cell-based, human
Procedure: Measuring Levels of C9orf72 and C9orf72 Variants by RT-qPCR. LCLs were seeded in 6-well plate (˜10^6 cells in 2 mL of growth medium) and incubated overnight at 37° C. Cells were then treated with various concentrations of compound for 24 h or with G4C2-ASO and Control-ASO (100 nM), delivered by transfection with Lipofectamine RNAiMax. RNA was extracted as described above and the expression of C9orf72 variants was determined by RT-qPCR. […] For compound treatment well, medium change was performed with fresh compound every 3-4 days. RNA was extracted as described above and the expression of C9orf72 variants was determined by RT-qPCR.

SMILES: CCOC(=O)C1=C(Nc2ccccc2)S/C(=C\c2ccc(OCCOCCOCCOCCNC(=O)CCC(=O)N(CCOCCOCCOc3ccc4[nH]c5c(C)c6ccncc6c(C)c5c4c3)CCOCCOCCOc3ccc4[nH]c5c(C)c6ccncc6c(C)c5c4c3)c(O)c2)C1=O [Compound 7]
- abundance of poly(GP) (Poly(GP)): significant (P<0.05) reduction
- C9orf72 intron 1 levels (C9orf72 intron 1): did not affect
